# Assay results taken from US20230150924A1, “NOVEL COMPOUND HAVING CANCER METASTASIS INHIBITORY ACTIVITY, PREPARATION METHOD THEREFOR, AND PHARMACEUTICAL COMPOSITION FOR INHIBITING CANCER METASTASIS AND INVASION OR TREATING COLORECTAL CANCER, COMPRISING COMPOUND” (CELLGENTEK CO., LTD., priority 2019, published 2023).
# Tests used:
# [1] = system: KAI1 promoter; experiment: KAI1 promoter luciferase reporter assay in transfected Caco2 cells; format: cell-based, human; conditions: 1 μM compound, 16 hours, transfected Caco2 cells, luciferase activity relative to DMSO control (=1); for fold induction at 1 µM: Homo sapiens, Caco-2, 16 h, read-out: Relative KAI promoter activity
# Description: Experiments were conducted to evaluate the metastasis-related promoter activity-increasing effects of the compounds according to the present invention. Specifically, the KAI1 promoter reporter vector was used. In this case, the pRL-TK vector, a vector expressing renilla luciferase, was used as an internal control indicating the transfection efficiency in each transfected well.
# First, 24 hours before transfection, 2×10^6 human colon cancer cell line, Caco2) cells were cultured in 10 ml of DMEM containing 10% FBS and 1% penicillin/streptomycin on a 100-mm-diameter plate, and then transformed with 5 μg of a pRL-TK vector mixture containing a transfection reagent and the KAI1 promoter, and then cultured in a 5% CO2 incubator at 37° C. for 48 hours. Thereafter, the adherent cells were detached using trypsin and counted using a hemacytometer, and then 5×10^3 transfected Caco2 cells in 100 μl of DMEM containing 10% FBS and 1% penicillin/streptomycin were seeded into each well of a 96-well plate and cultured in a 5% CO2 incubator at 37° C. for 24 hours. Next, 1 μM of each of the 305 compounds prepared in Examples 1 to 305 was added to each well, and after 16 hours, 100 μl of a lysis buffer for analysis containing a luciferase substrate was added, and the cells were lysed with stirring for 20 minutes. After completion of lysis, the cells were measured for luciferase activity using a luciferase reporter assay system (Promega, USA). […] In addition, data were analyzed at a significance level of p<0.05 by one-way ANOVA (Tukey's HSD), and SPSS 17.0 (Chicago, USA) statistical program was used. In Table 14 to 20, PHA is the PHA-665752, and KIT is KITENIN.
# [2] = system: invasion of colorectal cancer cells; experiment: In vivo relative invation (invasion; EV and KITENIN controls, no method described); conditions: relative to EV (=1); KIT = KITENIN
SMILES,fold induction at 1 µM [1],In vivo relative invation [2],Relative KAI promoter activity [1]
"CC(Oc1ccccc1)C(=O)NCC(=O)c1ccc(N(C)C)cc1 (stereo not shown) [Example 89, N-(2-(4-(dimethylamino)phenyl)-2-oxoethyl)-2-phenoxypropanamide]",1.27,1.074,–
"CCN(Cc1cccc(C(=O)NCC(=O)c2ccccc2)c1)c1ccccc1 [Example 239, 3-((ethyl(phenyl)amino)methyl)-N-(2-oxo-2-phenylethyl)benzamide]",1.08,1.135,–
"COc1ccc(C(=O)NCC(=O)c2ccc(N(C)C)cc2)cc1 [Example 97, N-(2-(4-(dimethylamino)phenyl)-2-oxoethyl)-4-methoxybenzamide]",1.8,1.024,–
"O=C(CNC(=O)c1cc(Cl)cc(Cl)c1)c1ccccc1 [Example 36, 3,5-dichloro-N-(2-oxo-2-phenylethyl)benzamide]",1.16,1.056,–
"CN(C)c1ccc(C(=O)CNC(=O)c2ccccc2Cl)cc1 [Example 93, 2-chloro-N-(2-(4-(dimethylamino)phenyl)-2-oxoethyl)benzamide]",2.48,1.091,–
"COc1cc(OC)cc(C(=O)NCC(=O)c2ccc(Cl)cc2)c1 [Example 85, N-(2-(4-chlorophenyl)-2-oxoethyl)-3,5imethoxybenzamide]",0.96,1.206,–
"O=C(CNC(=O)c1ccccc1OC1CCN(C(=O)c2ccc(F)cc2Cl)CC1)c1ccccc1 [Example 194, 2-((1-(2-chloro-4-fluorobenzoyl)piperidin-4-yl)oxy)-N-(2-oxo-2-phenylethyl)benzamide]",1.01,1.259,–
"COc1ccc(S(=O)(=O)NCC(=O)c2ccc(Cl)cc2)cc1 [Example 71, N-(2-(4-chlorophenyl)-2-oxoethyl)-4-methoxybenzenesulfonamide]",0.85,1.135,–
"O=C(CNC(=O)c1cccc(CN2CCN(c3ccc([N+](=O)[O-])cc3)CC2)c1)c1ccccc1 [Example 238, 3-((4-(4-nitrophenyl)piperazin-1-yl)methyl)-N-(2-oxo-2-phenylethyl)benzamide]",1.6,1.12,–
"CN(CCO)Cc1cccc(C(=O)NCC(=O)c2ccccc2)c1 [Example 243, 3-(((2-hydroxyethyl) (methyl)amino)methyl)-N-(2-oxo-2-phenylethyl)benzamide]",1.48,1.105,–
"CCCN(CC)Cc1cccc(C(=O)NCC(=O)c2cccc(OC)c2)c1 [Example 294, 3-((ethyl(propyl)amino)methyl)-N-(2-(3-methoxyphenyl)-2-oxoethyl)benzamide]",1.57,1.033,–
"O=C(CNC(=O)c1cccc(Cl)c1Cl)c1ccccc1 [Example 37, 2,3-dichloro-N-(2-oxo-2-phenylethyl)benzamide]",1.17,0.9648,–
"Cc1cc(C)cc(C(=O)NCC(=O)c2ccc(N(C)C)cc2)c1 [Example 120, N-(2-(4-(dimethylamino)phenyl)-2-oxoethyl)-3,5-dimethylbenzamide]",1.38,1.097,–
"CCCCN(CCO)Cc1cccc(C(=O)NCC(=O)c2ccccc2)c1 [Example 244, 3-((butyl (2-hydroxyethyl)amino)methyl)-N-(2-oxo-2-phenylethyl)benzamide]",1.51,1.1,–
"COc1ccc(C(=O)NCC(=O)c2ccc(Cl)cc2)cc1 [Example 62, N-(2-(4-chlorophenyl)-2-oxoethyl)-4-methoxybenzamide]",–,1.122,1.03
"COc1ccc(S(=O)(=O)NCC(=O)c2ccc(N(C)C)cc2)cc1 [Example 111, N-(2-(4-(dimethylamino)phenyl)-2-oxoethyl)-4-methoxybenzenesulfonamide]",1.44,1.065,–
"C=CCN(CC=C)Cc1cccc(C(=O)NCC(=O)c2cccc(OC)c2)c1 [Example 285, 3-((diallylamino)methyl)-N-(2-(3-methoxyphenyl)-2-oxoethyl)benzamide]",1.47,1.247,–
"CCC(=O)NCC(=O)c1cccc(OC)c1 [Example 124, N-(2-(3-methoxyphenyl)-2-oxoethyl) propionamide]",1.04,1.266,–
"C/C=C/C(=O)NCC(=O)c1ccc(N2CCOCC2)cc1 [Example 139, (E)-N-(2-(4-morpholinophenyl)-2-oxoethyl)but-2-enamide]",1.01,1.314,–
"COc1ccc(C(=O)NCC(=O)c2ccc(N3CCOCC3)cc2)cc1 [Example 140, 4-methoxy-N-(2-(4-morpholinophenyl)-2-oxoethyl)benzamide]",1.15,1.553,–
"O=C(CNC(=O)c1ccccc1OC1CCN(C(=O)c2ccc(OC(F)(F)F)cc2)CC1)c1ccccc1 [Example 199, N-(2-oxo-2-phenylethyl)-2-((1-(4-(trifluoromethoxy)benzoyl)piperidin-4-yl)oxy)benzamide]",0.97,1.105,–
"O=C(CNC(=O)c1cccc(Cl)c1)c1ccccc1 [Example 7, 3-chloro-N-(2-oxo-2-phenylethyl)benzamide]",1.2,1.091,–
"O=C(CNC(=O)C1CCCCC1)c1ccc(Cl)cc1 [Example 55, N-(2-(4-chlorophenyl)-2-oxoethyl)cyclohexanecarboxamide]",0.67,1.179,–
"O=C(CNC(=O)c1ccccc1F)c1cccnc1 [Example 132, 2-fluoro-N-(2-oxo-2-(pyridin-3-yl)ethyl)benzamide]",1.18,1.226,–
"O=C(CNC(=O)c1ccccc1OC1CCN(C(=O)c2ccccc2F)CC1)c1ccccc1 [Example 153, 2-((1-(2-fluorobenzoyl)piperidin-4-yl)oxy)-N-(2-oxo-2-phenylethyl)benzamide]",1.05,1.095,–
"O=C(CNC(=O)c1ccccc1OC1CCN(C(=O)c2ccc(F)cc2)CC1)c1ccccc1 [Example 154, 2-((1-(4-fluorobenzoyl)piperidin-4-yl)oxy)-N-(2-oxo-2-phenylethyl)benzamide]",1.05,1.173,–
"CN(C)c1ccc(C(=O)CNC(=O)c2ccc(C(F)(F)F)cc2)cc1 [Example 114, N-(2-(4-(dimethylamino)phenyl)-2-oxoethyl)-4-(trifluoromethyl)benzamide]",1.38,1.197,–
"CCCCCN(CCCCC)Cc1cccc(C(=O)NCC(=O)c2ccccc2)c1 [Example 250, 3-((dipentylamino)methyl)-N-(2-oxo-2-phenylethyl)benzamide]",1.25,0.9781,–
"COc1ccc(S(=O)(=O)N2CCC(Oc3ccccc3C(=O)NCC(=O)c3ccccc3)CC2)cc1 [Example 189, 2-((1-((4-methoxyphenyl)sulfonyl)piperidin-4-yl)oxy)-N-(2-oxo-2-phenylethyl)benzamide]",0.9,1.185,–
